Measured values from patent US4837241A (priority 1986, dated 1989).

What was measured:
[1] = molecular target: muscarinic acetylcholine receptors; format: binding, rat (male Wistar); conditions: 3H-QNB 1 nM; whole forebrain membranes, male Wistar rats; 37° C., 20 min, pH 7.1; non-specific: atropine 1 μg/ml
[2] = background, in words; cited from earlier work
[3] = tested on: muscarinic; conditions: background, in words; cited from earlier work
[4] = background, in words; cited from earlier work; remark: listed apart in the source
[5] = tested on: muscarinic cholinergic; conditions: background, in words; cited from earlier work

SMILES	QNB binding Inhibition in vitro (IC50) [1] [µg/mL]	further results
CCc1noc(C2=CC(C)CNC2)n1 (centres unmarked)	7.5	–
COC(=O)C1=CCCN(C)C1 [arecoline, methyl 1-methyl-1,2,5,6-tetrahydropiperidine-3-carboxylate]	–	biological half life [2]: very short biological half life; separation between central and peripheral muscarinic effects [3]: small separation between central and peripheral muscarinic effects; toxicity [4]: rather toxic compound; cholinergic agonist [5]: cholinergic agonist
CCc1noc(C2=CCCN(C)C2)n1	3.5	–
CN1CCC=C(c2nc(C3CC3)no2)C1	2.0	–
CCCCc1noc(C2=CCC(C)N(C)C2)n1 (centres unmarked)	3.3	–
C1=C(c2nc(C3CC3)no2)CNCC1	4.7	–
CCCc1nc(C2=CCCN(C)C2)no1	3.2	–
CC(C)c1noc(C2=CCCN(C)C2)n1	4.9	–
